In patent US5502035A, “N-terminus modified analogs of LHRH” (Tap Holdings Inc., priority 1994, dated 1996):
Non-standard residues stand in square brackets, D forms with d. Residues, ends and D or L forms follow the SMILES beside them. Groups on a side chain read outwards from the residue. *: point of attachment. Shikimoyl = O=C(C1=C[C@@H](O)[C@@H](O)[C@H](O)C1)*; X4 = O=C([C@@H](O)[C@@H](O)[C@H](O)[C@@H](O)CO)*; dPhe(4-Cl) = N[C@H](Cc1ccc(Cl)cc1)C(=O)O; d1Nal = N[C@H](Cc1cccc2ccccc12)C(=O)O; d2Nal = N[C@H](Cc1ccc2ccccc2c1)C(=O)O; NMeY = CN[C@@H](Cc1ccc(O)cc1)C(=O)O; NMeF = CN[C@@H](Cc1ccccc1)C(=O)O; hArg = N=C(N)NCCCC[C@H](N)C(=O)O; d3Pal = N[C@H](Cc1cccnc1)C(=O)O; NMeL = CN[C@@H](CC(C)C)C(=O)O; Nicotinoyl = O=C(c1cccnc1)*; Aze = O=C(O)[C@@H]1CCN1

biological target: T1, LHRH (Rattus norvegicus, UniProt P30969); assay: in vitro test for LHRH antagonist potency (pA2); assay type: cell-based; details: negative logarithm of the antagonist concentration required to shift the response curve produced by the agonist leuprolide to two-fold higher concentration
T1 construct: endogenous in cells; host or cells: rat pituitary cells (own knowledge of the cited Haviv 1989 method)
T1 sequence (P30969 1-327): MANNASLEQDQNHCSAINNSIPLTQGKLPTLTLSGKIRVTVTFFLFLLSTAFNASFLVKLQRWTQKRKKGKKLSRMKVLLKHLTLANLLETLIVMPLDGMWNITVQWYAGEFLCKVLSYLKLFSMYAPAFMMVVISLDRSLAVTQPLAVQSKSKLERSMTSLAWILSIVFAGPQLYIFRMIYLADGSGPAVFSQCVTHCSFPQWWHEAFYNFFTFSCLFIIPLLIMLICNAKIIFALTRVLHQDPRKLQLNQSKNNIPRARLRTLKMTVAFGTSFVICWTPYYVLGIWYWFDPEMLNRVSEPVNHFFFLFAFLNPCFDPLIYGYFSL
Summary of the method: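 Antagonism read against the agonist leuprolide on rat LHRH receptor; value is pA2, the −log of antagonist concentration that doubles the agonist concentration needed for the same response.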

In order of rising Kb:
1. CC(C)C[C@H](NC(=O)[C@@H](CCCCNC(=O)CNC(=O)C1=C[C@@H](O)[C@@H](O)[C@H](O)C1)NC(=O)[C@H](Cc1ccc(O)cc1)N(C)C(=O)[C@H](CO)NC(=O)[C@@H](Cc1cccnc1)NC(=O)[C@@H](Cc1ccc(Cl)cc1)NC(=O)[C@@H](Cc1ccc2ccccc2c1)NC(=O)CNC(=O)c1cccnc1)C(=O)N[C@@H](CCCNC(=N)N)C(=O)N1CCC[C@H]1C(=O)N[C@H](C)C(N)=O [Example 22, N-Nicotinyl-Gly-D2Nal-D4ClPhe-D3Pal-Ser-NMeTyr-DLys(Gly-Shik)-Leu-Arg-Pro-DAlaNH2] (Nicotinoyl-G[d2Nal][dPhe(4-Cl)][d3Pal]S[NMeY][dK]([Gly-Shikimoyl])LRP[dA]-NH2)  3.39 pM
2. CC(C)C[C@@H](C(=O)N[C@@H](CCCNC(=N)N)C(=O)N1CCC[C@H]1C(=O)N[C@H](C)C(N)=O)N(C)C(=O)[C@@H](CCCCNC(=O)C1=C[C@@H](O)[C@@H](O)[C@H](O)C1)NC(=O)[C@H](Cc1ccc(O)cc1)N(C)C(=O)[C@H](CO)NC(=O)[C@@H](Cc1cccnc1)NC(=O)[C@@H](Cc1ccc(Cl)cc1)NC(=O)[C@@H](Cc1ccc2ccccc2c1)NC(=O)CNC(=O)C1=C[C@@H](O)[C@@H](O)[C@H](O)C1 [Example 18b, N-Shikimyl-Gly-D2Nal-D4ClPhe-D3Pal-Ser-NMeTyr-DLys(Shik)-NMeLeu-Arg-Pro-DAlaNH2] (Shikimoyl-G[d2Nal][dPhe(4-Cl)][d3Pal]S[NMeY][dK](Shikimoyl)[NMeL]RP[dA]-NH2)  9.12 pM
3. CC(C)C[C@H](NC(=O)[C@@H](CCCCNC(=O)C1=C[C@@H](O)[C@@H](O)[C@H](O)C1)NC(=O)[C@H](Cc1ccccc1)N(C)C(=O)[C@H](CO)NC(=O)[C@@H](Cc1cccnc1)NC(=O)[C@@H](Cc1ccc(Cl)cc1)NC(=O)[C@@H](Cc1ccc2ccccc2c1)NC(=O)CNC(=O)C1=C[C@@H](O)[C@@H](O)[C@H](O)C1)C(=O)N[C@@H](CCCNC(=N)N)C(=O)N1CCC[C@H]1C(=O)N[C@H](C)C(N)=O [Example 17, N-Shikimyl-Gly-D2Nal-D4ClPhe-D3Pal-Ser-NMePhe-DLys(Shik)-Leu-Arg-Pro-DAlaNH2] (Shikimoyl-G[d2Nal][dPhe(4-Cl)][d3Pal]S[NMeF][dK](Shikimoyl)LRP[dA]-NH2)  11.2 pM
4. CC(C)C[C@H](NC(=O)[C@@H](CCCCNC(=O)C1=C[C@@H](O)[C@@H](O)[C@H](O)C1)NC(=O)[C@H](Cc1ccc(O)cc1)N(C)C(=O)[C@H](CO)NC(=O)[C@@H](Cc1cccnc1)NC(=O)[C@@H](Cc1ccc(Cl)cc1)NC(=O)[C@@H](Cc1ccc2ccccc2c1)NC(=O)CNC(=O)c1cccnc1)C(=O)N[C@@H](CCCCNC(=N)N)C(=O)N1CCC[C@H]1C(=O)N[C@H](C)C(N)=O [Example 25a, N-Nicotinyl-Gly-D2Nal-D4ClPhe-D3Pal-Ser-NMeTyr-DLys(Shik)-Leu-Harg-Pro-DAlaNH2] (Nicotinoyl-G[d2Nal][dPhe(4-Cl)][d3Pal]S[NMeY][dK](Shikimoyl)L[hArg]P[dA]-NH2)  14.1 pM
5. CC[C@H](C)[C@H](NC(=O)[C@@H](CCCCNC(=O)C1=C[C@@H](O)[C@@H](O)[C@H](O)C1)NC(=O)[C@H](Cc1ccc(O)cc1)N(C)C(=O)[C@H](CO)NC(=O)[C@@H](Cc1cccnc1)NC(=O)[C@@H](Cc1ccc(Cl)cc1)NC(=O)[C@@H](Cc1ccc2ccccc2c1)NC(=O)CNC(=O)C1=C[C@@H](O)[C@@H](O)[C@H](O)C1)C(=O)N[C@@H](CCCNC(=N)N)C(=O)N1CCC[C@H]1C(=O)N[C@H](C)C(N)=O [Example 18a, N-Shikimyl-Gly-D2Nal-D4ClPhe-D3Pal-Ser-NMeTyr-DLys(Shik)-Ile-Arg-Pro-DAlaNH2] (Shikimoyl-G[d2Nal][dPhe(4-Cl)][d3Pal]S[NMeY][dK](Shikimoyl)IRP[dA]-NH2)  16.6 pM
6. CC(C)C[C@H](NC(=O)[C@@H](CCCCNC(=O)CNC(=O)C1=C[C@@H](O)[C@@H](O)[C@H](O)C1)NC(=O)[C@H](Cc1ccc(O)cc1)N(C)C(=O)[C@H](CO)NC(=O)[C@@H](Cc1cccnc1)NC(=O)[C@@H](Cc1ccc(Cl)cc1)NC(=O)[C@@H](Cc1ccc2ccccc2c1)NC(=O)CNC(=O)C1=C[C@@H](O)[C@@H](O)[C@H](O)C1)C(=O)N[C@@H](CCCNC(=N)N)C(=O)N1CCC[C@H]1C(=O)N[C@H](C)C(N)=O [Example 15d, N-Shikimyl-Gly-D2Nal-D4ClPhe-D3Pal-Ser-NMeTyr-DLys(Gly-Shik)-Leu-Arg-Pro-DAlaNH2] (Shikimoyl-G[d2Nal][dPhe(4-Cl)][d3Pal]S[NMeY][dK]([Gly-Shikimoyl])LRP[dA]-NH2)  17.8 pM
7. CC(C)C[C@@H](C(=O)N[C@@H](CCCNC(=N)N)C(=O)N1CCC[C@H]1C(=O)N[C@H](C)C(N)=O)N(C)C(=O)[C@@H](CCCCNC(=O)C1=C[C@@H](O)[C@@H](O)[C@H](O)C1)NC(=O)[C@H](Cc1ccc(O)cc1)N(C)C(=O)[C@H](CO)NC(=O)[C@@H](Cc1cccnc1)NC(=O)[C@@H](Cc1ccc(Cl)cc1)NC(=O)[C@@H](Cc1ccc2ccccc2c1)NC(=O)CNC(=O)c1cccnc1 [Example 23b, N-Nicotinyl-Gly-D2Nal-D4ClPhe-D3Pal-Ser-NMeTyr-DLys(Shikimyl)-NMeLeu-Arg-Pro-DAlaNH2] (Nicotinoyl-G[d2Nal][dPhe(4-Cl)][d3Pal]S[NMeY][dK](Shikimoyl)[NMeL]RP[dA]-NH2)  18.6 pM
8. CC[C@H](C)[C@H](NC(=O)[C@@H](CCCCNC(=O)C1=C[C@@H](O)[C@@H](O)[C@H](O)C1)NC(=O)[C@H](Cc1ccc(O)cc1)N(C)C(=O)[C@H](CO)NC(=O)[C@@H](Cc1cccnc1)NC(=O)[C@@H](Cc1ccc(Cl)cc1)NC(=O)[C@@H](Cc1ccc2ccccc2c1)NC(=O)CNC(=O)c1cccnc1)C(=O)N[C@@H](CCCNC(=N)N)C(=O)N1CCC[C@H]1C(=O)N[C@H](C)C(N)=O [Example 23a, N-Nicotinyl-Gly-D2Nal-D4ClPhe-D3Pal-Ser-NMeTyr-DLys(Shik)-Ile-Arg-Pro-DAlaNH2] (Nicotinoyl-G[d2Nal][dPhe(4-Cl)][d3Pal]S[NMeY][dK](Shikimoyl)IRP[dA]-NH2)  19.5 pM
9. CC(C)C[C@H](NC(=O)[C@@H](CCCCNC(=O)CNC(=O)CNC(=O)c1cccnc1)NC(=O)[C@H](Cc1ccc(O)cc1)N(C)C(=O)[C@H](CO)NC(=O)[C@@H](Cc1cccnc1)NC(=O)[C@@H](Cc1ccc(Cl)cc1)NC(=O)[C@@H](Cc1ccc2ccccc2c1)NC(=O)CNC(=O)C1=C[C@@H](O)[C@@H](O)[C@H](O)C1)C(=O)N[C@@H](CCCNC(=N)N)C(=O)N1CCC[C@H]1C(=O)N[C@H](C)C(N)=O [Example 20, N-Shikimyl-Gly-D2Nal-D4ClPhe-D3Pal-Ser-NMeTyr-DLys(GlyGlyNic)-Leu-Arg-Pro-DAlaNH2] (Shikimoyl-G[d2Nal][dPhe(4-Cl)][d3Pal]S[NMeY][dK]([Gly-Gly-Nicotinoyl])LRP[dA]-NH2)  26.3 pM
10. CC(C)C[C@H](NC(=O)[C@@H](CCCCNC(=O)C1=C[C@@H](O)[C@@H](O)[C@H](O)C1)NC(=O)[C@H](Cc1ccc(O)cc1)N(C)C(=O)[C@H](CO)NC(=O)[C@@H](Cc1cccnc1)NC(=O)[C@@H](Cc1ccc(Cl)cc1)NC(=O)[C@@H](Cc1ccc2ccccc2c1)NC(=O)CNC(=O)c1cccnc1)C(=O)N[C@@H](CCCNC(=N)N)C(=O)N1CC[C@H]1C(=O)N[C@H](C)C(N)=O [Example 24, N-Nicotinyl-Gly-D2Nal-D4ClPhe-D3Pal-Ser-NMeTyr-DLys(Shikimyl)-Leu-Arg-Aze-DAlaNH2] (Nicotinoyl-G[d2Nal][dPhe(4-Cl)][d3Pal]S[NMeY][dK](Shikimoyl)LR[Aze][dA]-NH2)  28.2 pM
11. CC(C)C[C@H](NC(=O)[C@@H](CCCCNC(=O)C1=C[C@@H](O)[C@@H](O)[C@H](O)C1)NC(=O)[C@H](Cc1ccc(O)cc1)N(C)C(=O)[C@H](CO)NC(=O)[C@@H](Cc1cccc2ccccc12)NC(=O)[C@@H](Cc1ccc(Cl)cc1)NC(=O)[C@@H](Cc1ccc2ccccc2c1)NC(=O)CNC(=O)C1=C[C@@H](O)[C@@H](O)[C@H](O)C1)C(=O)N[C@@H](CCCNC(=N)N)C(=O)N1CCC[C@H]1C(=O)N[C@H](C)C(N)=O [Example 16, N-Shikimyl-Gly-D2Nal-D4ClPhe-D 1Nal-Ser-NMeTyr-DLys(Shik)-Leu-Arg-Pro-DAlaNH2] (Shikimoyl-G[d2Nal][dPhe(4-Cl)][d1Nal]S[NMeY][dK](Shikimoyl)LRP[dA]-NH2)  28.8 pM
12. CC(C)C[C@H](NC(=O)[C@@H](CCCCNC(=O)CNC(=O)[C@@H](O)[C@@H](O)[C@H](O)[C@@H](O)CO)NC(=O)[C@H](Cc1ccc(O)cc1)N(C)C(=O)[C@H](CO)NC(=O)[C@@H](Cc1cccnc1)NC(=O)[C@@H](Cc1ccc(Cl)cc1)NC(=O)[C@@H](Cc1ccc2ccccc2c1)NC(=O)CNC(=O)[C@@H](O)[C@@H](O)[C@H](O)[C@@H](O)CO)C(=O)N[C@@H](CCCNC(=N)N)C(=O)N1CCC[C@H]1C(=O)N[C@H](C)C(N)=O [Example 21, N-(L-Gulonyl)-Gly-D2Nal-D4ClPhe-D3Pal-Ser-NMeTyr-DLys(Gly-L-Gulonyl)-Leu-Arg-Pro-DAlaNH2] (X4-G[d2Nal][dPhe(4-Cl)][d3Pal]S[NMeY][dK]([Gly-X4])LRP[dA]-NH2)  31.6 pM
13. CC(C)C[C@H](NC(=O)[C@@H](CCCCNC(=O)C1=C[C@@H](O)[C@@H](O)[C@H](O)C1)NC(=O)[C@H](Cc1ccc(O)cc1)N(C)C(=O)[C@H](CO)NC(=O)[C@@H](Cc1cccnc1)NC(=O)[C@@H](Cc1ccc(Cl)cc1)NC(=O)[C@@H](Cc1ccc2ccccc2c1)NC(=O)CNC(=O)C1=C[C@@H](O)[C@@H](O)[C@H](O)C1)C(=O)N[C@@H](CCCNC(=N)N)C(=O)N1CC[C@H]1C(=O)N[C@H](C)C(N)=O [Example 19, N-Shikimyl-Gly-D2Nal-D4ClPhe-D3Pal-Ser-NMeTyr-DLys(Shik)-Leu-Arg-Aze-DAlaNH2] (Shikimoyl-G[d2Nal][dPhe(4-Cl)][d3Pal]S[NMeY][dK](Shikimoyl)LR[Aze][dA]-NH2)  40.7 pM
